# Assay results reported in article PMC10654507, “A cleavable chimeric peptide with targeting and killing domains enhances LPS neutralization and antibacterial properties against multi-drug resistant E. coli” (Communications Biology, 2023).
# Residues, ends and D or L forms follow the SMILES beside them.
# How the values were obtained:
# [1] = system: MDR E. coli CVCC195; assay: Serum cytokines (TNF-α, IL-6, IL-1β, IL-10; ELISA) in E. coli-challenged mice; assay type: in vivo, mouse; parameters: unit not given beside the values; conditions: Fig. 5c-f source data, peptide + E. coli challenged mice, mean
# Description: (§1) After E. coli or LPS challenge, the mice were sacrificed at 12 h and 24 h, respectively, and the sera were collected to detect inflammatory cytokines (such as tumor necrosis factor-α (TNF-α), interleukin-6 (IL-6), interleukin-1β (IL-1β), and interleukin-10 (IL-10)) using the enzyme linked immunosorbent assay (ELISA) kits. To evaluate the specific activity of intestinal alkaline phosphatase (IAP), a 2 cm segment of duodenum was rapidly intercepted from the mice and homogenized; the IAP levels in the supernatant were detected by ELISA. In addition, the lungs were collected from the mice infected by E. coli after 12 and 24 h, respectively and were homogenized in sterile PBS for the bacterial counts assay.
# [2] = system: mouse red blood cells; assay: Hemolytic activity; assay type: cell-based
# Description: Blood was collected from the eyeballs of specific pathogen-free (SPF) ICR female mice (6-week-old) with an anticoagulant tube and centrifuged for 10 min (4 °C, 1500 rpm). After washing twice with 0.9% physiological saline, red blood cells were diluted to 8% suspension and added into the Eppendorf tube (100 μL); 2-fold peptide solutions dissolved in 0.9% physiological saline (100 μL) were then added into the tube, incubated at 37 °C for 1 h, and centrifugated at 4 °C for 5 min. The supernatant was pipetted into a 96-well plate and the UV absorbance was measured at 540 nm using a microplate reader. 0.1% Triton X-100 and physiological saline were used as positive and negative control, respectively. The hemolysis rate is calculated as follows: Hemolysis (%) = [(Abspeptide-Abssaline) / (Abs0.1% Triton X-100- Abssaline)] × 100[13].
# [3] = system: LPS; assay: Intestinal alkaline phosphatase (IAP) activity in duodenum, LPS-challenged mice; assay type: in vivo, mouse; parameters: IAP levels in mice: unit not given beside the values; conditions: Fig. 7f source data, peptide + LPS, mean
# Description: as §1
# [4] = system: MDR E. coli CVCC195; assay: Mouse survival, preventive treatment before MDR E. coli challenge; assay type: in vivo; conditions: 7 μmol/kg i.p. at 0 h, MDR E. coli CVCC195 0.5 × 10^9 CFU/mouse i.p. at 6 h; five mice/group
# Description: A sepsis mouse model established in our laboratory was used to evaluate the prevention effect of peptides. […] The survival rate of mice was recorded for 7 days. The mice injected with saline were used as negative control.
# [5] = system: Staphylococcus aureus ATCC43300; assay type: cell-based; conditions: repeated three times
# Description: (§2) The minimum inhibitory concentration (MIC) and minimum bactericidal concentration (MBC) of peptides were determined by the microtiter broth dilution method according to Clinical and Laboratory Standards Institute (CLSI) guidelines. […] PBS was used as the negative control. […] The MBC value was calculated as the lowest concentration of peptides resulting in a 99.9% reduction of the original inoculum. All experiments were repeated three times.
# [6] = system: Escherichia coli CVCC195; assay type: cell-based; conditions: repeated three times
# Description: as §2
# [7] = system: S. typhimurium CVCC533; assay type: cell-based, Salmonella typhimurium; conditions: repeated three times
# Description: as §2
# [8] = in vitro; assay type: in vitro ADME
# [9] = lowest concentration giving 99.9% reduction of the inoculum
# [10] = microtiter broth dilution, 10^5 CFU/mL, 37 °C, 16 ~ 18 h
smiles,measurement,setting,value
CSCC[C@H](NC(=O)[C@H](CCCNC(=N)N)NC(=O)[C@H](Cc1c[nH]c2ccccc12)NC(=O)[C@H](C)NC(=O)[C@H](Cc1c[nH]c2ccccc12)NC(=O)[C@H](CCCNC(=N)N)NC(=O)[C@H](Cc1c[nH]c2ccccc12)NC(=O)[C@H](C)NC(=O)[C@H](CCCCN)NC(=O)[C@@H](N)Cc1ccccc1)C(=O)N[C@@H](CCCCN)C(=O)N[C@@H](CCCCN)C(=O)N[C@@H](CC(C)C)C(=O)N[C@@H](C)C(=O)N[C@@H](C)C(=O)N1CCC[C@H]1C(=O)N[C@@H](CO)C(=O)O [L7] (H-FKAWRWAWRMKKLAAPS-OH),TNFα,[1]; 12 h,75.496
same,TNFα,[1]; 24 h,66.872
same,hemolysis against mouse red blood cells,[2]; 128 μM,0%
same,Hemolysis,"[2]; concentration 1 μg/ml (as headed), 37 °C, 1 h, absorbance 540 nm, 0.1% Triton X-100 = 100, mean, n = 3",-0.1237%
same,Hemolysis,"[2]; concentration 2 μg/ml (as headed), 37 °C, 1 h, absorbance 540 nm, mean, n = 3",0.165%
same,Hemolysis,"[2]; concentration 4 μg/ml (as headed), 37 °C, 1 h, absorbance 540 nm, mean, n = 3",-0.1856%
same,Hemolysis,"[2]; concentration 8 μg/ml (as headed), 37 °C, 1 h, absorbance 540 nm, mean, n = 3",-0.6393%
same,Hemolysis,"[2]; concentration 16 μg/ml (as headed), 37 °C, 1 h, absorbance 540 nm, mean, n = 3",0.04126%
same,Hemolysis,"[2]; concentration 32 μg/ml (as headed), 37 °C, 1 h, absorbance 540 nm, mean, n = 3",-0.3506%
same,Hemolysis,"[2]; concentration 64 μg/ml (as headed), 37 °C, 1 h, absorbance 540 nm, mean, n = 3",-0.6805%
same,Hemolysis,"[2]; concentration 128 μg/ml (as headed), 37 °C, 1 h, absorbance 540 nm, mean, n = 3",-1.031%
same,Hemolysis,[2]; low concentration (0 ~ 32 μM),no hemolysis
same,IAP levels in mice,[3]; 12 h,684.97
same,IAP levels in mice,[3]; 24 h,544.938
same,mouse survival at 7 days,[4],60%
same,MBC,[5]; [9],18.1 µM
same,MIC,[5]; [10],18.1 µM
same,MBC,[6]; [9],4.53 µM
same,MIC,[6]; [10],2.26 µM
same,MBC,[7]; [9],18.1 µM
same,MIC,[7]; [10],18.1 µM
same,degradation in human serum,[8]; RP-HPLC (Supplementary Fig. 2),almost identical to those in mouse serum
same,"remaining at 0.5 h, 0.5 mM","[8]; Supplementary Fig. 2b source data, human serum, 0.5 h, RP-HPLC, mean, read-out: remaining rate in human serum",86.9%
same,"remaining at 1 h, 0.5 mM","[8]; Supplementary Fig. 2b source data, human serum, 1 h, RP-HPLC, mean, read-out: remaining rate in human serum",51.4%
same,"remaining at 2 h, 0.5 mM","[8]; Supplementary Fig. 2b source data, human serum, 2 h, RP-HPLC, mean, read-out: remaining rate in human serum",32%
same,"remaining at 4 h, 0.5 mM","[8]; Supplementary Fig. 2b source data, human serum, 4 h, RP-HPLC, mean, read-out: remaining rate in human serum",4.71%
same,"remaining at 8 h, 0.5 mM","[8]; Supplementary Fig. 2b source data, human serum, 8 h, RP-HPLC, mean, read-out: remaining rate in human serum",0.839%
